From patent US20230158084A1, “PROBIOTICS, METABOLITES, AND USES THEREOF” (California Institute of Technology, priority 2018, published 2023)

Experiments:
Assay type in all cases: in vivo, mouse
[1] = tested on: lncRNAs and ASD-relevant isoforms in the STR and PFC of BTBR mice; assay: qPCR of BTBR brains after 5AV and taurine administration; conditions: adult metabolite-treated BTBR mice
Excerpt: (§1) FIGS. 5A-D are a series of drawings illustrating that differential metabolites impact ASD-relevant behaviors in SPF mice in accordance with some embodiments herein. FIG. 5A: The abundance of select metabolites in the offspring microbiome is correlated with behavior of male offspring. Spearman correlation between the microbiome and mouse behavior, by donor (See FIGS. 1A-0). Benjamini-Hochberg adjusted p-values (α≤0.05) for significant correlations are noted. Color scale denotes Spearman ρ. […] Groups of mice were orally administered 10 mM Taurine or 5AV in drinking water before mating, and throughout their lifetime. Offspring were tested by marble burying, direct social interaction, and open field tests, and compared to untreated vehicle controls. Results are aggregated from 2 independent experiments. NControl=42, N5AV=52, NTaurine=36. Bar plots denote mean and S.E.M. Hypothesis on differences in means were tested by ANOVA on trimmed means (10%) and subsequent posthoc tests. FIGS. 5E-L: qPCR of BTBR brains after 5AV and taurine administration. Results are aggregated from 2 independent experiments. Hypothesis on differences in means were tested by ANOVA on trimmed means (10%) and subsequent posthoc tests. FIGS. 5M-V: series of graphs illustrating E18 B6 feeding 5AV and Taurine targeted metabolomics.
In view of the results described herein, it was further hypothesized that 5AV and taurine exert their effects on behavioral outcomes by altering expression patterns in the brain. To address this hypothesis, brains were collected from adult metabolite-treated BTBR mice and relative expression was quantified for select genes and isoforms that are differentially expressed between TD- and ASD-colonized offspring (FIGS. 3A-J). […] To test whether the expression of splice variants containing exons highlighted by rMATs analysis (see FIG. 3B, Tables 2.1-2.3), isoforms of interest were identified, which contain or exclude exons implicated by the analysis. […] Therefore, treatment with 5AV and taurine according to some embodiments affects the expression of lncRNAs and of specific ASD-relevant isoforms in the brains of BTBR mice treated throughout their lives.

BTBR mice [2] = assay: Marble burying (MB), BTBR mice given metabolites; conditions: BTBR offspring; 10 mM in drinking water before mating and throughout lifetime (prenatal administration); vs untreated vehicle controls
Experimental: as §1, with “Benjamini-Hochberg adjusted p-values (α≤0.05) for significant correlations are noted.” left out, “[…]=52,” for “N5AV=52,”, “[…] The number” for “FIGS. 5M-V: series”, “buried marbles (50% or more covered) was then recorded” for “graphs illustrating E18 B6 feeding 5AV”, “photographed for reference. […] As such, it will be appreciated that at a given stage of development, some molecules may readily pass through the blood brain barrier, while others may not.” for “Taurine targeted metabolomics.”

BTBR mice [3] = assay: Open field testing (OFT), BTBR mice given metabolites; conditions: BTBR offspring; 10 mM in drinking water before mating and throughout lifetime (prenatal administration); vs untreated vehicle controls
Experimental: FIGS. 5A-D are a series of drawings illustrating that differential metabolites impact ASD-relevant behaviors in SPF mice in accordance with some embodiments herein. FIG. 5A: The abundance of select metabolites in the offspring microbiome is correlated with behavior of male offspring. Spearman correlation between the microbiome and mouse behavior, by donor (See FIGS. 1A-0). […] Color scale denotes Spearman ρ. […] Groups of mice were orally administered 10 mM Taurine or 5AV in drinking water before mating, and throughout their lifetime. Offspring were tested by marble burying, direct social interaction, and open field tests, and compared to untreated vehicle controls. Results are aggregated from 2 independent experiments. NControl=42, […]=52, NTaurine=36. […] Open field testing (OFT)-OFT, as a measure for locomotion and anxiety, was performed in 50×50 cm^2 white plexiglas arenas, recorded using an overhead camera, and tracked and analyzed using the EthoVision XT 10 software package (Noldus Information Technology). […] The distance traveled, as well as the number of entries and time spend in a 30×30 cm^2 center square, were analyzed by the EthoVision software. […] As such, it will be appreciated that at a given stage of development, some molecules may readily pass through the blood brain barrier, while others may not.

SMILES	expression of isoforms containing a A3SS event in Gigyf2 [1]	expression of the lncRNAs Gm17259 and Gm13016 in the STR ([1]; striatum)	repetitive behavior, as measured by marble burying (BTBR mice [2])	anxiety, as measured by center duration in the OFT (BTBR mice [3])	expression of isoforms of Tip12 and Pogz [1]	expression of transcripts of Neurexin 1 in the STR ([1]; striatum)
NCCS(=O)(=O)O [taurine]	increases the expression	increased	significantly reduces repetitive behavior in male mice	reduces anxiety	–	–
NCCCCC(=O)O [5AV, 5-Aminovaleric acid]	–	increased	reduced repetitive behavior	–	marginal effects	increased in expression
